Measurements: publication PMC7584652 (Nature Communications, 2020)

Columns and labels:
Gmk = Gmk (Bacillus anthracis, UniProt Q81WG7); type: binding
Rel (RelA) = target: T1, Rel (RelA) (Bacillus subtilis, UniProt O54408); experiment: […] TLC hydrolysis time course; type: biochemical; conditions: 200 nM enzyme, 100 μM substrate, 25 mM Tris-HCl pH 7.5, 1 mM MnCl2, 37 °C
T1 construct: purified

Xpt = Xpt (Bacillus anthracis, UniProt Q81SQ5); conditions: labelled compound ([5′-α-32P]); 10 mM Tris pH 7.5, 100 mM NaCl, 5 mM MgCl2, room temperature
Hpt1 = Hpt1 (Bacillus anthracis, UniProt A0A6L7HDS1); conditions: labelled compound ([5′-α-32P]); 10 mM Tris pH 7.5, 100 mM NaCl, 5 mM MgCl2, room temperature
Der = Der (Bacillus anthracis, UniProt Q81SW9); conditions: labelled compound ([5′-α-32P]); 10 mM Tris pH 7.5, 100 mM NaCl, 5 mM MgCl2, room temperature
[1] = target: T2, translation elongation factor G (EF-G) (Bacillus anthracis, UniProt Q81VT3); experiment: biochemical
T2 construct: gene fusA

Obg = Obg (Bacillus anthracis, UniProt Q81LF0); experiment: biochemical
purified protein [2] = substrate: Nc1nc2c(ncn2[C@@H]2O[C@H](COP(=O)(O)OP(=O)(O)O)[C@@H](OP(=O)(O)OP(=O)(O)O)[C@H]2O)c(=O)[nH]1; experiment: purified protein; conditions: 100 nM enzyme, 40 mM Tris-HCl pH 7.5, 100 mM NaCl, 10 mM MgCl2, 37 °C, Hill n fixed to 1
purified protein [3] = substrate: Nc1nc2c(ncn2[C@@H]2O[C@H](COP(=O)(O)OP(=O)(O)OP(=O)(O)O)[C@@H](OP(=O)(O)OP(=O)(O)O)[C@H]2O)c(=O)[nH]1; experiment: purified protein; conditions: 100 nM enzyme, 40 mM Tris-HCl pH 7.5, 100 mM NaCl, 10 mM MgCl2, 37 °C, cooperative, fitted with Hill equation

T1 sequence (O54408 whole entry): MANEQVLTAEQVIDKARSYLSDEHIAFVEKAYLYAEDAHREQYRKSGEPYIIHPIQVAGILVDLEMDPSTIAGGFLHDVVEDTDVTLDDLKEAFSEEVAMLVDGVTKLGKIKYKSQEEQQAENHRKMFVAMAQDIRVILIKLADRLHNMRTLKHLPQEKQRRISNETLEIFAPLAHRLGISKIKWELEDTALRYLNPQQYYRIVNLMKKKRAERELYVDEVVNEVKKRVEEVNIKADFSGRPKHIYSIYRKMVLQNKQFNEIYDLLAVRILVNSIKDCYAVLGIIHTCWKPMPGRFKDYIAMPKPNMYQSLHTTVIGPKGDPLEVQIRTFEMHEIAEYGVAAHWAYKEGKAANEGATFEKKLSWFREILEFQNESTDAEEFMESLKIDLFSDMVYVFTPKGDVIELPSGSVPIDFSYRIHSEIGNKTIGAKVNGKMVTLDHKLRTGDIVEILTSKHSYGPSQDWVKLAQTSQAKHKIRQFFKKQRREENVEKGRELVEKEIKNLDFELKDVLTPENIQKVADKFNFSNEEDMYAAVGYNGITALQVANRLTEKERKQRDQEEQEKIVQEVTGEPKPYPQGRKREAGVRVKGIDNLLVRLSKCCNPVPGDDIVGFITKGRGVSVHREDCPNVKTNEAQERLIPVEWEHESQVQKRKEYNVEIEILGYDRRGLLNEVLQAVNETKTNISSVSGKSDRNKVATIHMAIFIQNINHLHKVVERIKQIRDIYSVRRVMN
Obg, sequence (Q81LF0 whole entry, looked up): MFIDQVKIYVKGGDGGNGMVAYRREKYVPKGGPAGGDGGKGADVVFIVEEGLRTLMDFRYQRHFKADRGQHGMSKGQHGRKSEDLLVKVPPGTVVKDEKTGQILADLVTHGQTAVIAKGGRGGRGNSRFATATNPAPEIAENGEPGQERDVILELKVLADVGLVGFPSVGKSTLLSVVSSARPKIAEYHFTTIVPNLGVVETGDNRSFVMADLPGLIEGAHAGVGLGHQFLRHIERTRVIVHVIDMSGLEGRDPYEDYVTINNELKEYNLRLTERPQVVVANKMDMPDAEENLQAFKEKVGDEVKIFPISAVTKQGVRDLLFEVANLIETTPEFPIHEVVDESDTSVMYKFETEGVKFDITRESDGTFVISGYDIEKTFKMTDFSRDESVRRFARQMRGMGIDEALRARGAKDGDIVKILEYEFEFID
T2 sequence (Q81VT3 whole entry, looked up): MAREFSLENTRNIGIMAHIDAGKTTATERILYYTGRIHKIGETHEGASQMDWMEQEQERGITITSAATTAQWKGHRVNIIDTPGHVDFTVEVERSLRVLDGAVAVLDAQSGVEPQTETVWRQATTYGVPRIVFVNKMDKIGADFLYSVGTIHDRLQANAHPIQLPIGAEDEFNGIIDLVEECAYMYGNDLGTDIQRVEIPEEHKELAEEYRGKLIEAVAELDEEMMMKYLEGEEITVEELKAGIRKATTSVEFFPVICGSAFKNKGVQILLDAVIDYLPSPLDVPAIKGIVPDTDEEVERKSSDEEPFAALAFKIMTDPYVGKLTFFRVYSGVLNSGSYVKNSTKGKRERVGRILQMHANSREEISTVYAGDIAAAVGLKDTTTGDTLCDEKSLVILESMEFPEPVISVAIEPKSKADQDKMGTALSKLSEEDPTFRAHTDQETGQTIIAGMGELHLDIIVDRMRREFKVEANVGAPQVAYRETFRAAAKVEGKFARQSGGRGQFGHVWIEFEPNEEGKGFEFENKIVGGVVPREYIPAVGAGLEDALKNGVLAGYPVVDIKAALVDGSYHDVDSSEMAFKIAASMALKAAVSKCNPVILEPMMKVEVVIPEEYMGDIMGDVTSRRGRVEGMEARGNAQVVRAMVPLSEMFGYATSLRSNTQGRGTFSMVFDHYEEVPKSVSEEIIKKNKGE
Gmk, sequence (Q81WG7 whole entry, looked up): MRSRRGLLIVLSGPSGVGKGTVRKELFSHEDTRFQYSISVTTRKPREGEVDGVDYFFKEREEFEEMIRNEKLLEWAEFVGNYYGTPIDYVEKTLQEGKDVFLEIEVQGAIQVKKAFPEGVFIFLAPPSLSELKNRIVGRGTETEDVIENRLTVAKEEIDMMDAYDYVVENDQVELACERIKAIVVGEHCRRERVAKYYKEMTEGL
Xpt, sequence (Q81SQ5 whole entry, looked up): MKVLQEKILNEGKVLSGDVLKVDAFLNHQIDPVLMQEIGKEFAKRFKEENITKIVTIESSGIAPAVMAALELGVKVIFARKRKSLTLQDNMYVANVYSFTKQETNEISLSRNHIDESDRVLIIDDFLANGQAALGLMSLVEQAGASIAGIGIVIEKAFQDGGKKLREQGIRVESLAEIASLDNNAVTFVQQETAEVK
Hpt1, sequence (A0A6L7HDS1 1-180): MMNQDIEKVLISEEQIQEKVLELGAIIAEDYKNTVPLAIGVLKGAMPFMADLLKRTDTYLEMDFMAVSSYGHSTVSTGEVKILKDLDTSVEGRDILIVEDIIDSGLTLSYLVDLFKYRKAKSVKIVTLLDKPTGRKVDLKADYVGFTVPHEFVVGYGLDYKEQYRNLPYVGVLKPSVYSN
Der, sequence (Q81SW9 whole entry, looked up): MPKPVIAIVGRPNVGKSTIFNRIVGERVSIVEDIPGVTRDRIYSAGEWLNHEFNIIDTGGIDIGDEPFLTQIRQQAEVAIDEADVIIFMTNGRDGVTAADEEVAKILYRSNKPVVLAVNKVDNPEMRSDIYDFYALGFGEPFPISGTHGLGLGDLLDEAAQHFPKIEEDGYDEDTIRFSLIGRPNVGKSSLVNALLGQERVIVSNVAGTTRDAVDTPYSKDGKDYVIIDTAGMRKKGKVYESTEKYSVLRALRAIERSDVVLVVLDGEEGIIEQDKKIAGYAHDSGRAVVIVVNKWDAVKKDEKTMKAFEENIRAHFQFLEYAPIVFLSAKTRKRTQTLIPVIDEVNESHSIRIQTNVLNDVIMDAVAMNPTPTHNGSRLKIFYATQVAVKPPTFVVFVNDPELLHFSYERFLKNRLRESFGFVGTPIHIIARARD

## Nc1nc2c(ncn2[C@@H]2O[C@H](COP(=O)(O)O)[C@@H](OP(=O)(O)OP(=O)(O)O)[C@H]2O)c(=O)[nH]1 [pGpp, guanosine-5′-monophosphate-3′-diphosphate]
Gmk
  DRaCALA, 1 μM purified protein: confirmed strong pGpp binding to guanosine nucleotide synthesis proteins (Hpt1, Gmk, and Xpt)
Rel (RelA)
  32P TLC hydrolysis time course: pGpp was hydrolyzed more rapidly than (p)ppGpp
Xpt
  DRaCALA, 1 μM purified protein: confirmed strong pGpp binding to guanosine nucleotide synthesis proteins (Hpt1, Gmk, and Xpt)
Hpt1
  DRaCALA, 1 μM purified protein: confirmed strong pGpp binding to guanosine nucleotide synthesis proteins (Hpt1, Gmk, and Xpt)

## Nc1nc2c(ncn2[C@@H]2O[C@H](COP(=O)(O)OP(=O)(O)O)[C@@H](OP(=O)(O)OP(=O)(O)O)[C@H]2O)c(=O)[nH]1 [ppGpp]
Der
  DRaCALA, 1 μM purified protein: GTPases involved in ribosome biogenesis (HflX, Obg, Der) bind ppGpp but not pGpp
Rel (RelA)
  32P TLC hydrolysis time course: all three nucleotides can be hydrolyzed efficiently by Rel
[1]
  Kd: 60 ± 8 µM
Obg
  Kd: 6 ± 2 µM

## Nc1nc2c(ncn2[C@@H]2O[C@H](COP(=O)(O)OP(=O)(O)OP(=O)(O)O)[C@@H](OP(=O)(O)OP(=O)(O)O)[C@H]2O)c(=O)[nH]1 [pppGpp]
[1]
  Kd: 296 ± 50 µM
Obg
  Kd: 48 ± 7 µM

B1: NahA (YvcI) (Bacillus subtilis subsp. subtilis str. 168) (protein)
chain: MTYLQRVTNCVLQTDDKVLLLQKPRRGWWVAPGGKMESGESVRDSVIREYREETGIYIINPQLKGVFTFIIKDGDHIVSEWMMFTFVADSYTGQNVSESEEGKLQWHDVNDIQNLPMAPGDGHILDFMMKGQGLLHGTFTYTPEFELLSYRLDPQHIK
Purified protein [2]
  Km: 7.5 ± 2.3 µM
  kcat: 1.22 ± 0.17 s⁻¹
Purified protein [3]
  K0.5: 177.4 ± 0.4 µM
  kcat: 10 ± 0.5 s⁻¹
